Laboratory results taken from ChEMBL document CHEMBL5725283, “2-pyridinecarboxamide derivatives, compositions containing such compounds, and methods of treatment” (2016).

Test: Glucokinase Activity Assay: Recombinant human liver glucokinase was expressed as a FLAG fusion protein in E. coli, and purified on ANTIFLAG M2 AFFINITY GEL (Sigma). The assay was carried out at 30° C. in a 96-well plate. In the plate was distributed 69 μl each of assay buffer (25 mM Hepes Buffer: pH=7.2, 2 mM MgCl2, 1 mM ATP, 0.5 mM TNAD, 1 mM dithiothreitol), to which was added 1 μl of a DMSO solution of the compound or DMSO as control. Then, 20 μl of pre-ice-cooled enzyme mixture (FLAG-GK, 20 U/ml G6PDH) was distributed thereto, to which was added 10 μl of 25 mM glucose as substrate to initiate the reaction (final glucose concentration=2.5 mM). After starting the reaction, the absorbance at 405 nm was measured every 30 seconds for 10 minutes to evaluate the compound based on the initial increase for 5 minutes. FLAG-GK was added so that the increase of absorbance after 5 minutes fell between 0.05 to 0.1 in the presence of 1% DMSO.

`CCOC(=O)Cc1csc(NC(=O)c2nc(Sc3nncn3C)ccc2Sc2ccc(F)cc2)n1` gave an EC50 of 49.3 nM.

For `CCOC(=O)CSc1cnc(NC(=O)c2nc(Sc3nncn3C)ccc2Sc2ccc(F)cc2)s1`, the EC50 was 13.4 nM.

`Cn1cnnc1Sc1ccc(Sc2ccc(F)cc2)c(C(=O)Nc2nc(CC(=O)O)cs2)n1` showed an EC50 of 137 nM.
